Our source for the IC50 values is BindingDB's records for doi:10.1021/jm00090a009 (Takeda Chemical Industries, 1992).

SMILES strings stand for the structures.

The assay concerns the target Thromboxane A2 receptor (Cavia porcellus). Nature of the assay: Compound was evaluated for its ability to inhibit specific binding of [3H]U-46619 to Thromboxane A2/ Prostaglandin H2 receptor in guinea pig platelet membrane.

What is called IC50 is the midpoint of a concentration-inhibition curve. Higher therefore signals weaker potency.

For the compound `Cc1c(C)c(C(CCCCCC(=O)O)c2ccc(F)cc2)c(O)c(C)c1C=O` (configuration not stated), the IC50 was 30 nM.

`Cc1c(C)c(O)c(C(=CCCCCC(=O)O)c2ccc(F)cc2)c(C)c1O`: the IC50 stood at 1400 nM.
